US8084016B2, “Measurement of biosynthesis and breakdown rates of biological molecules that are inaccessible or not easily accessible to direct sampling, non-invasively, by label incorporation into metabolic derivatives and catabolitic products” (The Regents of the University of California, priority 2002, dated 2011)

Legend:
[1] = Toxicity observation during maintained body water enrichment with ^2H2O; format: in vivo; conditions: levels maintained for weeks or months; >100 human subjects; rapid changes in body water enrichment prevented
Text: Relatively high body water enrichments of ^2H2O (e.g., 1-10% of the total body water is labeled) may be achieved using the techniques of the invention. This water enrichment is relatively constant and stable as these levels are maintained for weeks or months in humans and in experimental animals without any evidence of toxicity (FIGS. 3-5). This finding in a large number of human subjects (>100 people) is contrary to previous concerns about vestibular toxicities at high doses of ^2H2O. Applicants have discovered that as long as rapid changes in body water enrichment are prevented (e.g., by initial administration in small, divided doses), high body water enrichments of ^2H2O can be maintained with no toxicities. For example, the low expense of commercially available ^2H2O allows long-term maintenance of enrichments in the 1-5% range at relatively low expense (e.g., calculations reveal a lower cost for 2 months labeling at 2% ^2H2O enrichment, and thus 7-8% enrichment in the alanine precursor pool (FIGS. 6A-B), than for 12 hours labeling of ^2H-leucine at 10% free leucine enrichment, and thus 7-8% enrichment in leucine precursor pool for that period).

[2] = Body water ^2H2O enrichment during oral ^2H2O intake; format: in vivo, human
muscle myosin = assay: Incorporation of ^2H from ^2H2O into urinary 3-methyl-histidine (muscle myosin biosynthesis); format: in vivo; conditions: human subjects, intake of ^2H2O for 4-8 weeks
Text: An individual undergoing a physical training program or medical therapeutic regimen intended to increase muscle mass by increasing muscle myosin biosynthesis (e.g., an athlete; an elderly person receiving physical therapy after a stroke; a patient with cachexia related to cancer or AIDS who is receiving nutritional or anabolic agent therapy) is given a labeled precursor that is incorporated into the body's proteins during biosynthesis. […] […] […] Total urinary amino acids are isolated with an SPE column. The amino acids are derivatized for gas chromatographic/mass spectrometric analysis. […] The derivatized amino acids are injected into a gas chromatograph/mass spectrometer (e.g., HP 5973 instrument), using, e.g., a DB-225 column. The mass spectrum of the 3-methyl histidine peak is collected while monitoring mass isotopomers at m/z 267 and 268 (parent and M+1 ions, respectively). Relative abundances of the above mass isotopomers are quantified in samples and compared to unlabeled standards ([…] 267+268]=0.1200 in samples and 0.0960 in standards). The proportion of labeled:unlabeled molecules present in the sample is calculated for 3-methylhistidine using MIDA.

stability of ^2H2O enrichment in body water (precursor pool) ([2]; human subjects drank 50-100 ml ^2H2O daily for 10-12 weeks (FIG. 4))	^2H2O (%): body water enrichment ([2]; human subjects, intake of ^2H2O for 4-8 weeks) [%]	Structure (SMILES)	toxicity at high body water enrichments of ^2H2O [1]	k: replacement rate constant of 3-methyl-histidine (muscle myosin) [day⁻¹]
stable over a period of weeks	1.8	[2H]O[2H] [^2H2O]	no toxicities	–
–	–	Cn1cncc1C[C@H](N)C(=O)O [3-methyl-histidine]	–	0.037
